pIC50: −log10 of the molar value. Counter-ions that a name gives are not always drawn.

Assay [1] deals with T1, His-tagged human Aurora A (Homo sapiens, UniProt O14965).
T1 construct: His (N); made in house; host or cells: Escherichia coli BL21-CodonPlus(DE3)-RIL
T1 sequence (O14965 1-403): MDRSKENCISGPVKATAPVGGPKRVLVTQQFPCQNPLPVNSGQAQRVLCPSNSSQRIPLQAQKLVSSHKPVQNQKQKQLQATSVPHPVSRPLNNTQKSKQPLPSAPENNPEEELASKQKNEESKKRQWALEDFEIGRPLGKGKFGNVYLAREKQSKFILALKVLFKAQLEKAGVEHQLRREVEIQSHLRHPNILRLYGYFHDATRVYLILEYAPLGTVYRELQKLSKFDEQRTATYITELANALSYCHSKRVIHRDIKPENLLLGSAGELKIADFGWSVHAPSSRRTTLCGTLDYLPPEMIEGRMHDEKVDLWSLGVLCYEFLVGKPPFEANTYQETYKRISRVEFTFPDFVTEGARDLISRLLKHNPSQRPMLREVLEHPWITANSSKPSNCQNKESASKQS
Briefly: Aurora A inhibitory activity (IMAP fluorescence polarization phosphorylation assay). The class given is biochemical. The conditions noted are these: 20 μM ATP, 100 nM peptide substrate, 30° C. for 120 minutes. The source says:
cDNA of N-terminal His-tagged human Aurora A was integrated into an expression vector, which was then highly expressed in Escherichia coli BL21-CodonPlus(DE3)-RIL cells. The Escherichia coli was harvested and lysed, and then the His-tagged human Aurora A protein was applied onto a nickel chelate column and eluted from the column with imidazole. The active fractions were desalted with a desalting column to give a purified enzyme.
For measurement of the activity of Aurora A, the substrate used was a synthetic peptide (5-FAM (5-carboxyfluorescein)-γ-aminobutyric acid-Ala-Leu-Arg-Arg-Ala-Ser-Leu-Gly-NH2) (SEQ.ID.NO.:1), which was purchased from Toray Research Center, Inc.
For the phosphorylation reaction, the method by Upstate, Inc. [Kinase Profiler™ Assay Protocols] was referred to, and phosphorylation of the substrate was detected using IMAP® technology (Molecular Devices, Co. Ltd.) (Gaudet E W. et. al, J. Biomol. Screen, 8, 164-175(2003)). Concretely, the phosphorylation reaction and the detection were carried out as follows:
The phosphorylation reaction was conducted using 384 well plate, and the reaction volume was 10 μl/well. The reaction buffer is comprised of 50 mM Tris-chloride buffer (pH 7.4), 15 mM magnesium acetate, and 0.2 mM ethylenediamine-N,N,N′,N′-tetraacetic acid (EDTA). Thereto, the purified Aurora A protein, 100 nM of the peptide substrate, and 20 μM of adenosine 5′-triphosphate (ATP) were added, and then the reaction was carried out at 30° C. for 120 minutes.
Thereafter, in order to terminate and detect the reaction, 30 μl of the IMAP (registered trademark) binding reagent (IMAP Progressive Binding Reagent, R7284) that had been diluted (1:400) in the lx IMAP binding buffer A (IMAP Progressive Binding Buffer A, 5× stock, R7282) was added to each well. The solution stood still for 60 minutes in the dark, and then fluorescence polarization was measured using a high-end microplate reader (excitation wavelength: 485 nm; emission wavelength: 520 nm).
The compound to be tested was added to the reaction system such that a dilution series of the compound in dimethylsulfoxide (DMSO) was prepared, and then 0.5 μL of this solution was added for the testing to each well. Each control well was provided by adding 0.5 μL of DMSO to the well in place of the DMSO solution containing the compound to be tested.
(§1) Using the above method (in the measurement of activity of Aurora B, Method A was used), the results for measurement of the activities of Aurora A and Aurora B were obtained as shown in Table 1. […] Similar results are obtained when Method B is used in the measurement of activity of Aurora B.

The target of assay [2] is T2, GST-tagged human Aurora B(AurB)/His-tagged human INCENP complex proteins (Homo sapiens, UniProt Q96GD4).
T2 construct: GST; purchased Curia Biosciences, Inc
Briefly: Aurora B inhibitory activity, Method A (IMAP assay development kit). The conditions noted are these: 40 μM ATP, 100 nM substrate, 25° C. for 45 minutes. The class given is biochemical. As for the experimental part:
An assay development kit for IMAP (registered trademark) (Aurora B), purchased from Curia Biosciences, Inc., was used for phosphorylation reaction, and the phosphorylation of a substrate was detected using the IMAP technology. The assay development kit used is comprised of an assay buffer, GST-tagged human Aurora B(AurB)/His-tagged human INCENP complex proteins (amino acid sequence: 803-916, AAU04398.1), and an ATP/substrate solution. Using the same, the phosphorylation reaction was conducted in accordance with a partially revised protocol attached to the kit, and then the phosphorylation of the substrate was detected using the IMAP technology.
For the phosphorylation reaction, 384 well plate was used, and the reaction volume was 10 μl/well. The composition of the reaction buffer (assay buffer) is comprised of 20 mM of HEPES buffer (pH 7.4), 0.01% Tween-20, and 2 mM of dithiothreitol (DTT). Thereto, AurB/INCENP complex protein, 100 nM of the substrate, and 40 μM of ATP, and 1 mM of magnesium salt were added, and then the reaction was conducted at 25° C. for 45 minutes. Thereafter, in order to terminate and detect the reaction, 30 μl of the IMAP (registered trademark) binding reagent (IMAP Progressive Binding Reagent, R7284) that had been diluted (1:400) in the lx IMAP binding buffer A (IMAP Progressive Binding Buffer A, 5× stock, R7282) was added to each well. The solution stood still for 60 minutes in the dark, and then fluorescence polarization was measured using a high-end microplate reader (excitation wavelength: 485 nm; emission wavelength: 520 nm).
The compound to be tested was added to the reaction system such that a dilution series of the compound in DMSO was prepared, and then 0.5 μL of this solution was added for the testing to each well. Each control well was provided by adding 0.5 μL of DMSO to the well in place of the DMSO solution containing the compound to be tested.
as §1

T2 sequence (Q96GD4 whole entry): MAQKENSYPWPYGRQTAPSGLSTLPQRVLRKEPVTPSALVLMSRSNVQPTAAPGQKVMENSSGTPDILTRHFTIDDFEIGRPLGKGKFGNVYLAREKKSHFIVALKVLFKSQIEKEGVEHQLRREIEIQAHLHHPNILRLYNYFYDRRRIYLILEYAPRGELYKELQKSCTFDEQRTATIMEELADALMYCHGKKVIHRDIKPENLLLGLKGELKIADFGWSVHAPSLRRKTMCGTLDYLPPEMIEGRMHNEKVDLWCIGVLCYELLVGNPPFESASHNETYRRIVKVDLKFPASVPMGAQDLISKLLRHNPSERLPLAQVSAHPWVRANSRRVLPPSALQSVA
T2 sequence (Q9NQS7 803-916 partner limits assumed): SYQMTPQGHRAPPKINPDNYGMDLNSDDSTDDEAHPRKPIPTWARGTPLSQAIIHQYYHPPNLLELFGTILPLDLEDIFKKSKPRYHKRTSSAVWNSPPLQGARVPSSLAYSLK

As for `Cc1cc(Nc2cc[nH]n2)nc(N2C[C@H](C(=O)O)C[C@H](c3ccccc3)C2)n1` (relative stereo) [Example 10, cis-1-[4-methyl-6-(1H-pyrazol-5-ylamino)pyrimidin-2-yl]-5-phenylpiperidine-3-carboxylic acid trifluoroacetate], the pIC50 in assay [1] is 8.11; in assay [2] it was 5.10.
The corresponding values for `Cc1cc(Nc2cc[nH]n2)nc(N2C[C@@H](NC(=O)OC(C)(C)C)C[C@@H](C(=O)O)C2)n1` (relative stereo) [Example 8, cis-5-[(tert-butoxycarbonyl)amino]-1-[4-methyl-6-(1H-pyrazol-5-ylamino)pyrimidin-2-yl]piperidine-3-carboxylic acid] are 8.04 and 5.13.
With `Cc1cc(Nc2cc[nH]n2)nc(N2C[C@H](C(=O)O)C[C@H](C3CCCCC3)C2)n1` (relative stereo) [Example 13, cis-5-cyclohexyl-1-[4-methyl-6-(1H-pyrazol-5-ylamino)pyrimidin-2-yl]piperidine-3-carboxylic acid trifluoroacetate], the pIC50 in assay [1] was 8.96; in assay [2] it was 5.18.
Take `Cc1cc(Nc2cc(C3CC3)[nH]n2)nc(N2C[C@@H](C(=O)O)C[C@@H](C3CCCCC3)C2)n1` (stereo in doubt) [Example 20, (3S*,5S*)-5-cyclohexyl-1-{4-[(3-cyclopropyl-1H-pyrazol-5-yl)amino]-6-methylpyrimidin-2-yl}piperidine-3-carboxylic acid trifluoroacetate]: the pIC50 in assay [1] is 8.62; in assay [2], 5.94.
Regarding `Cc1cc(Nc2cc(C3CC3)[nH]n2)nc(N2C[C@H](CC(=O)O)C[C@H](C3CCCCC3)C2)n1` (stereo in doubt) [Example 23, [(3S*,5R*)-5-cyclohexyl-1-{4-[(3-cyclopropyl-1H-pyrazol-5-yl)amino]-6-methylpyrimidin-2-yl}piperidin-3-yl]acetic acid], the figures for the pIC50 in assay [1] and in assay [2] were 8.40 and 5.57, respectively.
Regarding `Cc1cc(Nc2cc[nH]n2)nc(N2C[C@H](NC(=O)OC(C)(C)C)C[C@@H](C(=O)O)C2)n1` (relative stereo) [Example 6, trans-5-[(tert-butoxycarbonyl)amino]-1-[4-methyl-6-(1H-pyrazol-5-ylamino)pyrimidin-2-yl]piperidine-3-carboxylic acid], the pIC50 in assay [1] is 7.26; in assay [2] it was under 5.00.
As to `Cc1cc(Nc2cc(C3CC3)[nH]n2)nc(N2C[C@H](C(=O)O)C[C@H](C3CCCCC3)C2)n1` (stereo in doubt) [Example 21, (3R*,5R*)-5-cyclohexyl-1-{4-[(3-cyclopropyl-1H-pyrazol-5-yl)amino]-6-methylpyrimidin-2-yl}piperidine-3-carboxylic acid trifluoroacetate], the pIC50 in assay [1] was 9.09; in assay [2] it was 6.56.
In the case of `Cc1cc(Nc2cc(C3CC3)[nH]n2)nc(N2C[C@@H](CC(=O)O)C[C@@H](C3CCCCC3)C2)n1` (stereo in doubt) [Example 24, [(3R*,5S*)-5-cyclohexyl-1-{4-[(3-cyclopropyl-1H-pyrazol-5-yl)amino]-6-methylpyrimidin-2-yl}piperidin-3-yl]acetic acid], the values for the pIC50 in assay [1] and in assay [2] were over 9.52 and 6.46, respectively.

These data come from patent US8367690B2, “Aminopyridine derivatives having aurora a selective inhibitory action” (Vertex Pharmaceuticals Inc., priority 2009, dated 2013).
